From ChEMBL document CHEMBL1201862, “PubChem BioAssay data set” (2004)
Activity calls are given as the source filed them.

Legend:
[1] = biological target: T1, Tyrosine-protein phosphatase non-receptor type 7 (Homo sapiens, UniProt P35236); assay type: functional
T1 sequence (P35236 whole entry): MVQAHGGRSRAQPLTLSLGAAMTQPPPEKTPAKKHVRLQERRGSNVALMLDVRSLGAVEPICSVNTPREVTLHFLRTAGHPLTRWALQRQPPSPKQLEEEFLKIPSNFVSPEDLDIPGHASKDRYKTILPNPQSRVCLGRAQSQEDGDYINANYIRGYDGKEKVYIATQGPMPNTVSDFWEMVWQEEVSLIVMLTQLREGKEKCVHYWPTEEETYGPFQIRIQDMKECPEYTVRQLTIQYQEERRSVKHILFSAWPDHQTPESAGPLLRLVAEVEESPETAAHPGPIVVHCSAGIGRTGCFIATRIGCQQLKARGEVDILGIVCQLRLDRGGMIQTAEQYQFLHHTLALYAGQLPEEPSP

[2] = biological target: T2, Tyrosine-protein phosphatase non-receptor type 22 (Homo sapiens, UniProt Q9Y2R2); assay type: functional
T2 sequence (Q9Y2R2 whole entry): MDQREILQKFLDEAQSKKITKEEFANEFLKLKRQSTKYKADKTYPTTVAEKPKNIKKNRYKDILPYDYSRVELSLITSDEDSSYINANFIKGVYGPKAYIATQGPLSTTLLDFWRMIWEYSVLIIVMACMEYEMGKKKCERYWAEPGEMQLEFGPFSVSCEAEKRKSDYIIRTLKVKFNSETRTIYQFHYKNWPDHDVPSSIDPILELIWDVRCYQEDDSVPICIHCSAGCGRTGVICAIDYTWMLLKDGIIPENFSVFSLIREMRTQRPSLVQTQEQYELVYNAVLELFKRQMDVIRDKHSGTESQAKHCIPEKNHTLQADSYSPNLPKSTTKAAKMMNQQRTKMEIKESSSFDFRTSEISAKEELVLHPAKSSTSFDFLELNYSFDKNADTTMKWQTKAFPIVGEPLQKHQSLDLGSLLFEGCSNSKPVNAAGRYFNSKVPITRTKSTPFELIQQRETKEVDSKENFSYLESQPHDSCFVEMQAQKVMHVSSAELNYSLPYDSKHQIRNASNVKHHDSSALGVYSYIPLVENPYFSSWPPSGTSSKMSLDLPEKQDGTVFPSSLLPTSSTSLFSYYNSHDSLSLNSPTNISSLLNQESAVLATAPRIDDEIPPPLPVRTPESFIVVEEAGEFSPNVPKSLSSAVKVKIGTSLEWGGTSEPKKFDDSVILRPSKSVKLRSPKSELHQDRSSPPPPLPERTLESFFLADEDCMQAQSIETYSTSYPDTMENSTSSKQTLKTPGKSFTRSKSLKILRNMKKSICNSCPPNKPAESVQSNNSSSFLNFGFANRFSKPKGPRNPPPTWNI

[3] = biological target: T2, Tyrosine-protein phosphatase non-receptor type 22; assay type: functional; remark: listed apart in the source
[4] = biological target: T3, G-protein coupled receptor 35 (Homo sapiens, UniProt Q9HC97); test: SAR analysis of Agonists of the GPR35 Receptor using an Image-Based Assay - Set 4. [Related pubchem assays (depositor defined):AID2013, AID2026]; assay type: functional
T3 sequence (Q9HC97 whole entry): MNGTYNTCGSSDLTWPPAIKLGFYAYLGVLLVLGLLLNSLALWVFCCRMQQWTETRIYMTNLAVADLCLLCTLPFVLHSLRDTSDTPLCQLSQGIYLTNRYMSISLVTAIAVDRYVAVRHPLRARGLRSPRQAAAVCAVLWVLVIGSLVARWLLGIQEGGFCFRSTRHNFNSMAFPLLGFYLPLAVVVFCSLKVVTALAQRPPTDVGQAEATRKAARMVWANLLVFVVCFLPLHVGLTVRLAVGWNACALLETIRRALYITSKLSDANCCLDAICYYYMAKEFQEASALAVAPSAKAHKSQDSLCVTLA

Cannabinoid receptor 1 [5] = biological target: T4, Cannabinoid receptor 1 (Homo sapiens, UniProt P21554); test: SAR analysis of agonists of the Cannabinoid Receptor 1 using an Image-Based Assay - Set 4. [Related pubchem assays (depositor defined):AID2013, AID2026]; assay type: functional
T4 sequence (P21554 whole entry): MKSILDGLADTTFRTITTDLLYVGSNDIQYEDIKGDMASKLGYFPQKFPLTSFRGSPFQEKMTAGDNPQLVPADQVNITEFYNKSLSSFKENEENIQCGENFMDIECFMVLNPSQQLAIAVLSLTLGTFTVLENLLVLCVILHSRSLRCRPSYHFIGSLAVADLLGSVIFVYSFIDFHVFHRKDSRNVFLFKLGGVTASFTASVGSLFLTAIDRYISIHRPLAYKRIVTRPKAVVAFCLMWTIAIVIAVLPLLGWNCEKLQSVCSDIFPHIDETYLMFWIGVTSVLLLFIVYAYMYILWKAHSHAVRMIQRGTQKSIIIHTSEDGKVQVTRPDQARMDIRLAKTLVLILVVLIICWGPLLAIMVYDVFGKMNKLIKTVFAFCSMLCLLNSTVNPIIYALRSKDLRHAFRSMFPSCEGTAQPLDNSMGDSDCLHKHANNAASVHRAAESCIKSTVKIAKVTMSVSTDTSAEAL

[6] = biological target: T3, G-protein coupled receptor 35; test: SAR analysis of Antagonists of the GPR35 Receptor using an Image-Based Assay - Set 6. [Related pubchem assays (depositor defined):AID2013, AID2026]; assay type: functional
Cannabinoid receptor 1 [7] = biological target: T4, Cannabinoid receptor 1; test: SAR analysis of antagonists of the Cannabinoid Receptor 1 using an Image-Based Assay - Set 4. [Related pubchem assays (depositor defined):AID2013, AID2026]; assay type: functional
[8] = biological target: G-protein coupled receptor 55 (Homo sapiens, UniProt Q9Y2T6); test: SAR Analysis of Selective Antagonists of GPR55 using an Image-Based Assay - Set 4. [Related pubchem assays (depositor defined):AID2013, AID2026]; assay type: functional;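 also: antagonism of response to 5 µM lysophosphatidylinositol agonist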
Chain of G-protein coupled receptor 55 (Q9Y2T6 whole entry): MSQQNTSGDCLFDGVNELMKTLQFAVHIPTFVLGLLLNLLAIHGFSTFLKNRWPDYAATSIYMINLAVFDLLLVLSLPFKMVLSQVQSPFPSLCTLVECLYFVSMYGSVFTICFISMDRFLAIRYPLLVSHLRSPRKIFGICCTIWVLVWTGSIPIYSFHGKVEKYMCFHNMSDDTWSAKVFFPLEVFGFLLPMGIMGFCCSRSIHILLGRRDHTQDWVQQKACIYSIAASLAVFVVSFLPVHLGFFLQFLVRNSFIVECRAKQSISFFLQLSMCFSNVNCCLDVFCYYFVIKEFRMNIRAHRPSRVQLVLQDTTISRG

Cannabinoid receptor 2 [9] = biological target: T5, Cannabinoid receptor 2 (Homo sapiens, UniProt P34972); test: SAR analysis of antagonists of the Cannabinoid Receptor 2 using an Image-Based Assay - Set 3. [Related pubchem assays (depositor defined):AID2013, AID2026]; assay type: functional
T5 sequence (P34972 whole entry): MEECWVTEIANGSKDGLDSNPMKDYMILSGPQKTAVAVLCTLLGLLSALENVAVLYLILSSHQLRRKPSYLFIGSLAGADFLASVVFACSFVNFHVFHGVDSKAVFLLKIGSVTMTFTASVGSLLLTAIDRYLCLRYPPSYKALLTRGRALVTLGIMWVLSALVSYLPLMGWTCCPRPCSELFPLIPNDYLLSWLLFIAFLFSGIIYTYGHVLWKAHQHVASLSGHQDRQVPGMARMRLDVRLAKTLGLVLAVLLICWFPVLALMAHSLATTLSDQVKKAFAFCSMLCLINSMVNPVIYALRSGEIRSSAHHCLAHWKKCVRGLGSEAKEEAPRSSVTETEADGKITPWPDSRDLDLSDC

Cannabinoid receptor 2 [10] = biological target: T5, Cannabinoid receptor 2; test: SAR analysis of agonists of the Cannabinoid Receptor 2 using an Image-Based Assay - Set 3. [Related pubchem assays (depositor defined):AID2013, AID2026]; assay type: functional
[11] = biological target: T6, Dual specificity protein phosphatase 3 (Homo sapiens, UniProt P51452); test: VHR1 phosphatase inhibitors, primary screen, biochemical, absorbance, uHTS (AID 1654)
T6 sequence (P51452 whole entry, the tested form may be a part): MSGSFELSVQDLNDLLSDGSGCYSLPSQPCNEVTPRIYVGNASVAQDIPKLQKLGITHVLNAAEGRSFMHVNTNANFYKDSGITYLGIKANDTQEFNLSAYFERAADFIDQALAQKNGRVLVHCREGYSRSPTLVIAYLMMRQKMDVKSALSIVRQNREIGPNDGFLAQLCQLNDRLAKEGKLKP

[12] = biological target: T7, RNA-binding protein pos-1 (Caenorhabditis elegans, UniProt G5EF15); test: inhibitors of POS-1/mex-3 RNA binding, dose response, biochemical, fluorescence polarization (AID 1964);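 also: purified POS-1 fused to maltose binding protein made in E. coli; potency of compounds blocking POS-1 binding to fluorescent RNA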
T7 sequence (G5EF15 whole entry): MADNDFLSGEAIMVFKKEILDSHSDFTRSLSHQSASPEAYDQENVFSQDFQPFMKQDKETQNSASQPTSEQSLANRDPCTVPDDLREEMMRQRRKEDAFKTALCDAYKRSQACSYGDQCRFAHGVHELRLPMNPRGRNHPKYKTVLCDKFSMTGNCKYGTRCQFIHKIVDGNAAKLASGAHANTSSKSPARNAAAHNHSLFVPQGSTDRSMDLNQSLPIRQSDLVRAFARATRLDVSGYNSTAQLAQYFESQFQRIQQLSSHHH

[13] = biological target: T8, Zinc finger protein mex-5 (Caenorhabditis elegans, UniProt Q9XUB2); test: MEX-5/TCR-2 RNA interaction inhibitors, dose response, biochemical, C. elegans, fluorescence polarization (AID 1960)
T8 sequence (Q9XUB2 whole entry): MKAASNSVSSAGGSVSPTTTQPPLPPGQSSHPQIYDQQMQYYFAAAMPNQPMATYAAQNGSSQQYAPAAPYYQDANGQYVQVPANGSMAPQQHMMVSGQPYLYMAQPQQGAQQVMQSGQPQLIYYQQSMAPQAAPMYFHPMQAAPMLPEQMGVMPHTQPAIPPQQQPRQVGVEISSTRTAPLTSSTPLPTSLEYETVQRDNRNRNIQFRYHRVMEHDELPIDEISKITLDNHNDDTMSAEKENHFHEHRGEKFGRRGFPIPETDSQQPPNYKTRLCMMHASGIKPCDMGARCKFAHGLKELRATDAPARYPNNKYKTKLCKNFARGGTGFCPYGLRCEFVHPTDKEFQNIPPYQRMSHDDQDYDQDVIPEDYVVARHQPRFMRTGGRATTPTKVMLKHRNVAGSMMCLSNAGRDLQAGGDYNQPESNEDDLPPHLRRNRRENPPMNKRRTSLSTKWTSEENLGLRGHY

[14] = biological target: T6, Dual specificity protein phosphatase 3; test: VHR1 phosphatase inhibitors, biochemical (AID 1878)
[15] = biological target: T9, Dual specificity protein phosphatase 6 (Rattus norvegicus, UniProt Q64346); test: MKP-3 phosphatase inhibitors, primary screen, biochemical, rat enzyme, in vitro (AID 425)
T9 sequence (Q64346 whole entry): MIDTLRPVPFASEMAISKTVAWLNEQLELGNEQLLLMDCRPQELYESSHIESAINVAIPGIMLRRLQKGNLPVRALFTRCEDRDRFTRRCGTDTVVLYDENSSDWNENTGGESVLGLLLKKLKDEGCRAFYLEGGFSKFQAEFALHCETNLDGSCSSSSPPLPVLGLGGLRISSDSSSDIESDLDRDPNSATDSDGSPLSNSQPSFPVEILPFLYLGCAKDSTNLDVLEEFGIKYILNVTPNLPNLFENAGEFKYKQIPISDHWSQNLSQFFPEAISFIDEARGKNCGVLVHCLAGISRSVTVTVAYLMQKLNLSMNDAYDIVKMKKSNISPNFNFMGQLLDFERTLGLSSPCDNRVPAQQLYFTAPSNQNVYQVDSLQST

[16] = biological target: T10, Carboxy-terminal domain RNA polymerase II polypeptide A small phosphatase 1 (Homo sapiens, UniProt Q9GZU7); test: inhibitors of CTDSP1, concentration-response testing, biochemical assay, absorbance-based, actives from ultra-high-throughput screening (AID 540297); assay type: functional
T10 sequence (Q9GZU7 whole entry): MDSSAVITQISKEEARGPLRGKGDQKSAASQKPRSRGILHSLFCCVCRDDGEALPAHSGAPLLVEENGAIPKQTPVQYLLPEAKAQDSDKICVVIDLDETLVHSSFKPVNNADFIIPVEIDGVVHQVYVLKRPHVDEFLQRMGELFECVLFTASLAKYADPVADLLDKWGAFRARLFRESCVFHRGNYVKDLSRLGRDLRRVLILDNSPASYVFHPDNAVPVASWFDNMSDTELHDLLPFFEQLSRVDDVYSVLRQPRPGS

[17] = biological target: T1, Tyrosine-protein phosphatase non-receptor type 7; test: HePTP (PTPN7) phosphatase inhibitor potency, SAR follow-up, biochemical, set 2 (AID 449736); assay type: functional
SUMO-activating enzyme = SUMO-activating enzyme (Homo sapiens, UniProt Q9UBT2); test: SUMOylation inhibitor hit validation, confirmation, SUMOylation inhibitor project, biochemical, AlphaScreen (AID 2018); assay type: functional
Chain of SUMO-activating enzyme (Q9UBE0 whole entry): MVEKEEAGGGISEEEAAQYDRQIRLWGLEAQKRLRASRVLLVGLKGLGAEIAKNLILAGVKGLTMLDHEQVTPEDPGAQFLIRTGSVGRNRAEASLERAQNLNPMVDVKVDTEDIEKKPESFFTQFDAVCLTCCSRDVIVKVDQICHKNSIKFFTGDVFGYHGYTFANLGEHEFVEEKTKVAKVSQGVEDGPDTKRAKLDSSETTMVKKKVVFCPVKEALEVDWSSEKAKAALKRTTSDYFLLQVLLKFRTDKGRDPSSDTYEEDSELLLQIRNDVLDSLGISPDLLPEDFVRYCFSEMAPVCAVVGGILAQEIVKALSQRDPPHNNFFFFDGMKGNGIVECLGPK
Chain of SUMO-activating enzyme (Q9UBT2 whole entry): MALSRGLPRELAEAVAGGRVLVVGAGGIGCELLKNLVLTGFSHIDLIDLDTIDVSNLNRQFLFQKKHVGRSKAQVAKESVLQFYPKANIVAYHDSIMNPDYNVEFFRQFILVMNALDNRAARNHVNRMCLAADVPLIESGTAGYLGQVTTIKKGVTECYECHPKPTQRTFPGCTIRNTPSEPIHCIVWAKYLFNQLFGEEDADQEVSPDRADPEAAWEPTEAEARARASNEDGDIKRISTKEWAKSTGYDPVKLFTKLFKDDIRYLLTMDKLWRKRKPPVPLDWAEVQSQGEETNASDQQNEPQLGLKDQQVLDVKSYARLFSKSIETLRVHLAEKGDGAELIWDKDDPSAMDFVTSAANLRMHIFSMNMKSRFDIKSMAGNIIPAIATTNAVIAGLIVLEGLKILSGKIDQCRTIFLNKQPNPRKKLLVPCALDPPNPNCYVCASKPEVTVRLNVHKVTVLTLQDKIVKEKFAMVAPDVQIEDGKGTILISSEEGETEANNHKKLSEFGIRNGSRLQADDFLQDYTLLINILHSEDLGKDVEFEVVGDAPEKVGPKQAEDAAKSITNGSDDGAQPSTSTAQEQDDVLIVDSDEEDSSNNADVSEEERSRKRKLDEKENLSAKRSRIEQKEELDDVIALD

[18] = biological target: T11, Corticotropin-releasing factor receptor 2/Corticotropin-releasing factor-binding protein (Homo sapiens, UniProt P24387+Q13324); test: activators of CRF receptor 2 with binding protein – uHTS hits, confirmation (AID 602473); assay type: functional; settings: read-out: EC50_Mean
T11 sequence (Q13324 whole entry): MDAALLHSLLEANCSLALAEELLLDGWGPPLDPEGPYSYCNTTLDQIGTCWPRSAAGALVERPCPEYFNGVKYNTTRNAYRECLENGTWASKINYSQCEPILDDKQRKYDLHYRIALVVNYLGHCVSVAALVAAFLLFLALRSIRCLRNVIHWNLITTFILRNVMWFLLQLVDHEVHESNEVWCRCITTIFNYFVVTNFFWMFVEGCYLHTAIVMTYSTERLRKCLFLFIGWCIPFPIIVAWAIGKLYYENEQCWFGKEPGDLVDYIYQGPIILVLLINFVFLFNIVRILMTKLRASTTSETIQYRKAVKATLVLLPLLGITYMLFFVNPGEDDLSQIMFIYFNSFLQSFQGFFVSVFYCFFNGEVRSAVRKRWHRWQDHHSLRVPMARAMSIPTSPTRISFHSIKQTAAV
T11 sequence (P24387 whole entry): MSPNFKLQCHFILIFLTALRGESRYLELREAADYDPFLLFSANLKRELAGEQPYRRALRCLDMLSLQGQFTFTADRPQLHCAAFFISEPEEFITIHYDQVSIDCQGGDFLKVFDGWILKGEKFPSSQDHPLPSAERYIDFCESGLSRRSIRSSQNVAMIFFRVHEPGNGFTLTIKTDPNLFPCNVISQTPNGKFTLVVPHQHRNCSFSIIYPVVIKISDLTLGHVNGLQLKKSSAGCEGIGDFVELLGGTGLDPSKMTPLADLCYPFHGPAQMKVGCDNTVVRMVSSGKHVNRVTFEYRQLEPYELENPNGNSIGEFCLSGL

CAAX prenyl protease 2 = biological target: T12, CAAX prenyl protease 2 (Saccharomyces cerevisiae S288c, UniProt Q03530); assay type: biochemical
T12 sequence (Q03530 whole entry): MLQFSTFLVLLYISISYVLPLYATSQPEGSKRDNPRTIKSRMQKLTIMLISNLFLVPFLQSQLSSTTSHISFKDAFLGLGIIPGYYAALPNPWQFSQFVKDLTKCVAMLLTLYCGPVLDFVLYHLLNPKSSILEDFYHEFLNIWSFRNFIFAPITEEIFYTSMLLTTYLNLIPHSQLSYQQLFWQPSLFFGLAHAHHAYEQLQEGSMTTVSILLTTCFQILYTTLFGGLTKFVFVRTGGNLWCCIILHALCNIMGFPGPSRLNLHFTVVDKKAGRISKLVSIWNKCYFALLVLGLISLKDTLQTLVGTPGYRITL

[19] = mammalian cell cytotoxicity, dose response, cytotoxicity control, plate reader, cherry-pick samples (AID 504397); assay type: functional, cell-based
[20] = biological target: T13, Runt-related transcription factor 1/Core-binding factor subunit beta (Homo sapiens, UniProt Q01196+Q13951); test: inhibitors of RUNX1 Runt–CBFb-SMMHC binding, primary screen, biochemical, FRET, Cerulean-Runt, Venus-CBFb-SMMHC, uHTS (AID 1434); assay type: protein assay;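 also: partner is the CBFb-SMMHC leukemia fusion protein rather than wild-type CBFb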
T13 sequence (Q01196 whole entry, the tested form may be a part): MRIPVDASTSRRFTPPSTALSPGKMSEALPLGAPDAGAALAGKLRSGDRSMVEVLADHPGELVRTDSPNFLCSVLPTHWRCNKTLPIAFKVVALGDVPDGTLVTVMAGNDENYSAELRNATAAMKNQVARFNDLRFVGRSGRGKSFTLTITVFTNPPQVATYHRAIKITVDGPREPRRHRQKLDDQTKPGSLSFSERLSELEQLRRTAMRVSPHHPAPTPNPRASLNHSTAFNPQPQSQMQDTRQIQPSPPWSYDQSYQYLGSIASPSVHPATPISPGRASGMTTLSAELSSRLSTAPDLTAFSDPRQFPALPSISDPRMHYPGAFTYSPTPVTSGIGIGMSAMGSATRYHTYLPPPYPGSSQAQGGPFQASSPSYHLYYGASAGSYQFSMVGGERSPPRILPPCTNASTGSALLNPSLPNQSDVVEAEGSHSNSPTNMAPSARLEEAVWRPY
T13 sequence (Q13951 whole entry, the tested form may be a part): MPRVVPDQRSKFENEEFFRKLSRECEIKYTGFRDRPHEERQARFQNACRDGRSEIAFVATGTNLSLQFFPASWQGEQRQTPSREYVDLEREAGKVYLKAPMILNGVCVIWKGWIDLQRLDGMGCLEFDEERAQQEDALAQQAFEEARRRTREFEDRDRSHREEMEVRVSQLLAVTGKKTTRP

[21] = biological target: T13, Runt-related transcription factor 1/Core-binding factor subunit beta; test: inhibitors of RUNX1 Runt–CBFb-SMMHC binding, biochemical, TR-FRET (AID 1438); assay type: protein assay

Compound: CCc1nc2cc([N+](=O)[O-])c([N+](=O)[O-])cc2[nH]1
- IC50 [1]: > 79.4 µM (inactive)
- IC50 [2]: > 79.4 µM (inactive)
- IC50 [3]: > 79.4 µM (inactive)

Compound: Cc1nc(N2CCN(C(=O)C3CC3)CC2)c2c3c(sc2n1)CC(C)CC3 (stereo not drawn)
- EC50 [4]: > 32 µM (inactive)
- EC50 (Cannabinoid receptor 1 [5]): > 32 µM (inactive)
- IC50 [6]: > 32 µM (inactive)
- IC50 (Cannabinoid receptor 1 [7]): 17.9 µM (inactive)
- IC50 [8]: 10.6 µM (inactive)
- IC50 (Cannabinoid receptor 2 [9]): > 32 µM (inactive)
- EC50 (Cannabinoid receptor 2 [10]): > 32 µM (inactive)

Compound: Cc1ccc(NC(=O)CN2C(=O)S/C(=C\c3cccn3-c3cccc(C(=O)O)c3)C2=O)cc1C
- IC50 [11]: 6.14 µM (active)
- EC50 [12]: > 300 µM (not active)
- EC50 [13]: > 300 µM (not active)
- IC50 [14]: 4.36 µM (active)
- IC50 [15]: 17.2 µM (active)
- IC50 [16]: 3.28 µM (active)

Compound: Cc1cccc(NC(=S)Nc2ccc(S(N)(=O)=O)cc2)c1
- IC50 [17]: > 100 µM (inactive)

Compound: O=C(Nc1nnc(-c2ccccc2)o1)c1nc2ccccc2s1
- IC50 (SUMO-activating enzyme): 16.3 µM (active)
- EC50 [18]: 7.07 µM (active)

Compound: COc1ccc(-c2cc(C(=O)N3CCN(c4ccccc4)CC3)c3ccccc3n2)cc1
- AC50 (CAAX prenyl protease 2): 4.71 µM (active)
- AC50 [19]: 57.4 µM (active)

Compound: C=CCOc1c(Br)cc(C2C3=C(CCCC3=O)N(C)C3=C2C(=O)CCC3)cc1OCC
- IC50 [20]: 865 nM (active)
- IC50 [21]: 41.2 µM (active)
